Data taken from BindingDB's records for doi:10.1080/14756360701546413 (Dumlupinar University, 2008).

Biological target: Glutathione-disulfide reductase (Escherichia coli O157:H7, UniProt A0A0H3JIZ9)
Assay: Enzyme Assay
Procedure: The enzyme activities in the absence of drugs or chemicals were taken as 100%. For each drug or chemical, an activity%-(drug) graph was drawn and drug concentrations producing 50% inhibition were calculated for the inhibitors.

Sequence of Glutathione-disulfide reductase (A0A0H3JIZ9 whole entry): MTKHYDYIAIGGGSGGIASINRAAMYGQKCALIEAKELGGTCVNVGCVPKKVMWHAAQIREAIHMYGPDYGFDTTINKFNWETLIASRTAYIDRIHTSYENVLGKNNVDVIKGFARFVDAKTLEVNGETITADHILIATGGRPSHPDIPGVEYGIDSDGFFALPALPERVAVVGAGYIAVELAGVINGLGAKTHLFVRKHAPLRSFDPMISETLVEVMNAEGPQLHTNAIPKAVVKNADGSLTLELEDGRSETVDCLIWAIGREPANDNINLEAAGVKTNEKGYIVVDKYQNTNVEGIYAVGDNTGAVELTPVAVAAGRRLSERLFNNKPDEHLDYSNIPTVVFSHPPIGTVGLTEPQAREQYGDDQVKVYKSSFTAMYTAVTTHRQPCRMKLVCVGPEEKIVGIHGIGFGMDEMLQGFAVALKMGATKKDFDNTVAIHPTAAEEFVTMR

SMILES	IC50	Ki
CC(CCC(=O)Nc1nnc(S(N)(=O)=O)s1)C1CCC2C3CCC4CC(O)CCC4(C)C3CCC12C (centres undefined) [Sulfonamide derivative, 1]	47.1 µM	72.3 µM
CC(CCC(=O)Nc1nnc(S(N)(=O)=O)s1)C1CCC2C3C(O)CC4CC(O)CCC4(C)C3CCC12C (centres undefined) [Sulfonamide derivative, 2]	4.5 µM	6.1 µM
